In patent publication US20170196797A1 (AMOREPACIFIC CORPORATION, priority 2014, published 2017):

What was measured:
[1] = DPPH method, antioxidative effect; format: biochemical; settings: sample concentration at which DPPH absorbance (540 nm) decreased by 50%; 37° C., 30 minutes
Description: The DPPH method evaluates antioxidative effect by measuring and comparing the effect of suppressing DPPH oxidation based on the change in absorbance caused by the reduction of DPPH. […] After incubation at 37° C. for 30 minutes, absorbance was measured at 540 nm. The analysis result is shown in Table 3, where IC50 means the sample concentration when the absorbance was decreased by 50% due to the added sample.

MCP-1 = MCP-1 ELISA in retinoic acid-treated normal human skin keratinocytes; format: cell-based; settings: NHEKs, 24 hours
Description: One day before the testing, normal human skin keratinocytes (NHEKs, Lonza) were added to a 96-well plate with 5×10^4 cells/well and cultured in a 5% CO2 incubator at 37° C. for 24 hours. 24 hours later, the cells were washed with PBS twice and the cell culture medium was replaced with a serum-free keratinocyte basement medium (KBM). […] The retinoic acid is known to promote the secretion of the inflammatory cytokine MCP (monocyte chemoattractant protein-1) as a skin irritant. […] For the ELISA, the method provided by BD Science was used.

collagenase = assay: Collagenase expression suppression in human fibroblasts; format: cell-based; settings: 10^−4 M, 24 hours, untreated group = 100
Description: Tocopherol and EGCG are known to prevent skin aging by regenerating epidermal cells.
Human fibroblasts were added to a 96-well microtiter plate containing Dulbecco's modified Eagle's medium (DMEM) supplemented with 2.5 wt % fetal bovine serum, with 5,000 cells/well, and cultured to about 90% confluence.
The production of collagenase in the cell culture was measured using a collagenase measuring system (Amersham Pharmacia, USA). First, the harvested cell culture was added to a 96-well plate having primary collagenase antibodies applied uniformly thereto and was incubated for 3 hours in a constant-temperature bath. 3 hours later, after adding chromophore-conjugated secondary collagen antibodies to the 96-well plate, incubation was performed for 15 minutes. 15 minutes later, a substance inducing color development was added and color development was induced at room temperature for 15 minutes. […] The intensity of the yellow color varied depending on the degree of progress of the reaction.
A cell culture obtained without treating with the composition was used as a control group. That is to say, the expression level of collagenase in the group treated with the test substance was calculated relative to that of the untreated group as 100.
Collagenase expression level(%)=Absorbance of group treated with test substance/Absorbance of control group×100 [Equation 1]

Mel-Ab cells = assay: Melanin production inhibition in Mel-Ab cells (Dooley's method); format: cell-based, mouse; settings: 10 ppm, added for 3 consecutive days
Description: Melanocytes derived from C57BL/6 mouse (Mel-Ab cells) (Dooley, T. P. et al, Skin Pharmacol, 7, pp. 188-200) were cultured in DMEM supplemented with 10% fetal bovine serum, 100 nM 12-O-tetradecanoylphorbol-13-acetate and 1 nM cholera toxin under the condition of 37° C. and 5% CO2. The cultured Mel-Ab cells were detached with 0.25% trypsin-EDTA and cultured in a 24-well plate with a concentration of 10^5 cells/well. During the culturing, each test substance was added for 3 consecutive days starting from day 2. […] After removing the medium, the cells were washed with phosphate-buffered saline (PBS) and lysed with 1 N sodium hydroxide. After measuring absorbance at 400 nm, the melanin production inhibition was calculated according to Equation 2.
Melanin production inhibition(%)=100−(Absorbance of group treated with test substance/Absorbance of control group×100) [Equation 2]

[2] = Skin irritation test by sensitive panels; format: in vivo, human; settings: scale 0-3.0
Source text: 0.5-1.0: Slight irritation.
1.1-2.0: Moderate irritation.
2.1-3.0: Severe irritation.

[3] = 0.5 mL on cheek, 15 sensitive panels

## Cc1c(C)c2c(c(C)c1O)CCC(C)(C(=O)O)O2 (stereo not drawn) [Trolox]
[1]
  IC50: 57 ppm

## CC1=C(/C=C/C(C)=C/C=C/C(C)=C/C(=O)O)C(C)(C)CCC1 [Retinoic acid, retinoic acid]
MCP-1; retinoic acid 10 μM alone, untreated group 527.3
  MCP-1 secretion: 804.5 pg/mL

## O=C(O[C@@H]1Cc2c(O)cc(O)cc2O[C@@H]1c1cc(O)c(O)c(O)c1)c1cc(O)c(O)c(O)c1 [EGCG]
collagenase
  Collagenase expression level: 59%

## tocopherol
collagenase
  Collagenase expression level: 81%

## C[C@]12CCC(=O)C=C1CC[C@@H]1[C@@H]2[C@@H](O)C[C@@]2(C)[C@H]1CC[C@]2(O)C(=O)CO [Hydrocortisone, hydrocortisone]
MCP-1; 100 nM + retinoic acid 10 μM
  MCP-1 secretion: 448.3 pg/mL

## Oc1ccc(O)cc1 [Hydroquinone, hydroquinone]
Mel-Ab cells
  Melanin production inhibition: 57.5%

## O=c1cc(CO)occ1O [Kojic acid, kojic acid]
[2]; [3]
  Flushing score: 0.43 points
  Pricking score: 0.81 points
[2]; mean of pricking and flushing
  Mean irritation score: 0.62 points
